From patent US5635593A (priority 1995, dated 1997)
Peptide text beside a SMILES is read from it.

How the values were obtained:
[1] = tested on: blood pressure responses to BK; format: in vivo; conditions: anaesthetized rat, dose response curve n=10
BK2 -receptor = biological target: T1, BK2 -receptor (Rattus norvegicus, UniProt P25023); test: rat uterus (RU) in vitro, antagonism of BK; conditions: percentage recovery after washing
T1 construct: guinea-pig ileum (GPI), rat uterus (RU) and rabbit jugular vein (RJV); from tissue; host or cells: rat uterus
T1 sequence (P25023 1-396): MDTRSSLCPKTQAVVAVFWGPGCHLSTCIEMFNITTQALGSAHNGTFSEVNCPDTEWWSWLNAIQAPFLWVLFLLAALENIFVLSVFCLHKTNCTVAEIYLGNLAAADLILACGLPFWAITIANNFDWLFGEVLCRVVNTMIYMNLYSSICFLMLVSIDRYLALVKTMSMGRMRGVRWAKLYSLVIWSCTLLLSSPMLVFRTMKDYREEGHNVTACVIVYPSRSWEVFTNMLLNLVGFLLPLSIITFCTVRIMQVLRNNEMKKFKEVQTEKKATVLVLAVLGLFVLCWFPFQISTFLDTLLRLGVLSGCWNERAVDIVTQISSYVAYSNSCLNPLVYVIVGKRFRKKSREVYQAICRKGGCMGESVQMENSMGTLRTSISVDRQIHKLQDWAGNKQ

BK2 receptor [2] = biological target: T2, BK2 receptor (Cavia porcellus, UniProt O70526); test: guinea-pig ileum (GPI) in vitro, antagonism of BK
T2 construct: tested for activity on guinea pig ileum in vitro on the standard tissue bath/strain gauge system; from tissue; host or cells: guinea pig ileum
T2 sequence (O70526 1-372): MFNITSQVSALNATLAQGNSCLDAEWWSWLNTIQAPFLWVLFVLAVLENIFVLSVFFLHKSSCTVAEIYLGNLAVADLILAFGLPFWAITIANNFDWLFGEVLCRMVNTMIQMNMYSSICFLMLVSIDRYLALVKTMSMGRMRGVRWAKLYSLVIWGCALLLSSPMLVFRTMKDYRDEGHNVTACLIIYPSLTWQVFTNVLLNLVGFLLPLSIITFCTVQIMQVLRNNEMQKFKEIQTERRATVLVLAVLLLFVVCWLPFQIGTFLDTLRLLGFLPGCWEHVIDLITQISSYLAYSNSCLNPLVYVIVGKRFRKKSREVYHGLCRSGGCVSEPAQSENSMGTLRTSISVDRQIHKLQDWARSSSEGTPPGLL
Protocol: (§1) Thus, in vitro studies were performed on standard assay systems, namely, guinea-pig ileum (GPI), rat uterus (RU) and rabbit jugular vein (RJV). […] The potency of each compound was assessed as a pA2 value according to the method of Arunlakshana & Schild, Br. J. Pharmacol. Chemother., 14:48-58 (1959). The pA2 can be defined as the negative logarithm of the molar concentration of the antagonist in the presence of which the potency of the agonist is reduced two-fold, i.e., twice the amount of agonist is required to produce a given response in the presence of, than in the absence of, the antagonist. A high potency of antagonism is indicated by a high pA2 value. i.e., a low concentration of antagonist is effective.
The percentage recovery (% Rec) was also determined for compounds with respect to each assay.
The Cys-modified monomers and the resultant dimers were tested for activity on guinea pig ileum in vitro on the standard tissue bath/strain gauge system as before.

BK2 receptor [3] = biological target: T3, BK2 receptor (Oryctolagus cuniculus, UniProt Q28642); test: rabbit jugular vein (RJV) in vitro, antagonism of BK; conditions: percentage recovery after washing
T3 construct: from tissue; host or cells: whole animal (rabbit, LPS-pretreated), blood pressure response
T3 sequence (Q28642 1-367): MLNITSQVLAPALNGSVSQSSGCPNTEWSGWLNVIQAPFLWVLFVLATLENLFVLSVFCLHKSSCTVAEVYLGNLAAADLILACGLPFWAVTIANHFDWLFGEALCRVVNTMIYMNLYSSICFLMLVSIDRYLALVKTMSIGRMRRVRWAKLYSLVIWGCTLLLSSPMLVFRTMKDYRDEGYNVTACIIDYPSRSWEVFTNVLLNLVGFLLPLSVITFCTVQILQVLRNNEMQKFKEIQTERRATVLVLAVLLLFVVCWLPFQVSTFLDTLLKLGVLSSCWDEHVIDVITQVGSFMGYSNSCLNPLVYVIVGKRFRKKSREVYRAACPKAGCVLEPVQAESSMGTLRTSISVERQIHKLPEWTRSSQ
Protocol: as §1
The percentage recovery (% Rec) was also determined for compounds with respect to each assay. Percentage recovery is a measure of the duration of action, the lower the percentage recovery value, the greater the duration of action of the compound.

SMILES	ED50 of BK, blood pressure [1] [nmol]	% REC rat uterus (BK2 -receptor) [%]	pA2 guinea pig ileum (BK2 receptor [2]; against BK)	% REC GPI (BK2 receptor [2]; percentage recovery after washing) [%]	% REC RJV (BK2 receptor [3]) [%]	Kb (BK2 receptor [2]; against BK, read-out: pA2 guinea pig ileum (converted)) [nM]
NC(N)=NCCC[C@H](NC(=O)[C@H](Cc1ccccc1)NC(=O)[C@@H]1CCCN1C(=O)[C@H](CO)NC(=O)[C@H](Cc1ccccc1)NC(=O)CNC(=O)[C@@H]1CCCN1C(=O)[C@@H]1CCCN1C(=O)[C@@H](N)CCCN=C(N)N)C(=O)O [BK, Arg^1 -Pro^2 -Pro^3 -Gly^4 -Phe^5 -Ser^6 -Pro^7 -Phe^8 -Arg^9] (H-RPPGFSPFR-OH)	0.4	–	–	–	–	–
CC(C)C[C@H](NC(=O)[C@@H](Cc1ccccc1)NC(=O)[C@H](CSC1CC(=O)N(CCCCCCN2C(=O)CC(SC[C@H](NC(=O)[C@H](Cc3ccccc3)NC(=O)CNC(=O)[C@@H]3C[C@@H](O)CN3C(=O)[C@@H]3CCCN3C(=O)[C@H](CCCNC(=N)N)NC(=O)[C@H](N)CCCNC(=N)N)C(=O)N[C@H](Cc3ccccc3)C(=O)N[C@@H](CC(C)C)C(=O)N[C@@H](CCCNC(=N)N)C(=O)O)C2=O)C1=O)NC(=O)[C@H](Cc1ccccc1)NC(=O)CNC(=O)[C@@H]1C[C@@H](O)CN1C(=O)[C@@H]1CCCN1C(=O)[C@H](CCCNC(=N)N)NC(=O)[C@H](N)CCCNC(=N)N)C(=O)N[C@@H](CCCNC(=N)N)C(=O)O (stereo partly shown) [CP-0127] (HELM PEPTIDE1{[dR].R.P.[Hyp].G.F.C.[dF].L.R}|PEPTIDE2{[dR].R.P.[Hyp].G.F.C.[dF].L.R}|CHEM1{[O=C1CC([*:1])C(=O)N1CCCCCCN1C(=O)CC([*:2])C1=O]}$PEPTIDE1,CHEM1,7:R3-1:R1|PEPTIDE2,CHEM1,7:R3-1:R2$$$V2.0)	–	50	7.7	100	10	–
CC(C)C[C@H](NC(=O)[C@@H](Cc1ccccc1)NC(=O)[C@H](CO)NC(=O)[C@H](Cc1ccccc1)NC(=O)CNC(=O)[C@@H]1C[C@@H](O)CN1C(=O)[C@@H]1CCCN1C(=O)[C@H](CCCNC(=N)N)NC(=O)[C@H](N)CSC1CC(=O)N(CCCCCCN2C(=O)CC(SC[C@@H](N)C(=O)N[C@@H](CCCNC(=N)N)C(=O)N3CCC[C@H]3C(=O)N3C[C@H](O)C[C@H]3C(=O)NCC(=O)N[C@@H](Cc3ccccc3)C(=O)N[C@@H](CO)C(=O)N[C@H](Cc3ccccc3)C(=O)N[C@@H](CC(C)C)C(=O)N[C@@H](CCCNC(=N)N)C(=O)O)C2=O)C1=O)C(=O)N[C@@H](CCCNC(=N)N)C(=O)O (stereo partly shown) [CP-0161] (HELM PEPTIDE1{[dC].R.P.[Hyp].G.F.S.[dF].L.R}|PEPTIDE2{[dC].R.P.[Hyp].G.F.S.[dF].L.R}|CHEM1{[O=C1CC([*:1])C(=O)N1CCCCCCN1C(=O)CC([*:2])C1=O]}$PEPTIDE1,CHEM1,1:R3-1:R1|PEPTIDE2,CHEM1,1:R3-1:R2$$$V2.0)	–	100	–	–	–	316
